Assay results taken from PMC10313671, “Accelerating the prediction and discovery of peptide hydrogels with human-in-the-loop” (Nature Communications, 2023).
Where a SMILES comes first, the peptide text is derived from it.

Key:
[1] = Transmission electron microscope (negative staining) of peptide assemblies; conditions: for Morphology: TEM, negative staining with uranyl acetate, 120 kV; for morphology by TEM (in words): aqueous solution or hydrogel, negative staining
Description: We used the negative staining technique to observe the morphologies formed by peptides. A micropipette was used to load 10 μL of sample solution to a carbon-coated copper grid, and we used a piece of filter paper to remove the excess solution. After rinsing the grid with the deionized water, we used uranyl acetate to stain the sample for 1 minute and then rinsed the grid with deionized water again.

[2] = Peptide hydrogel formation, vial-inverting method; assay type: physicochemical; parameters: key to EXP / GELATION: 0: no hydrogel; 1: hydrogel; conditions: for State: ultrasonication, standing 48 h; for Concentration: concentration at which the state was recorded: lowest of 30, 60, 90, 120 mM that gave a gel, 120 mM for non-gelating peptides; for GELATION: 1 = hydrogel, 0 = no hydrogel
Description: After validating the efficiency of APHC in predicting tetrapeptide hydrogels, we detailed the phase state of 165 synthesized tetrapeptides and the observed assembly behavior in an aqueous solution.
This work defines hydrogel formation as a self-supporting, non-flowing mixture of water and hydrogelator by the vial-inverting method. All purified tetrapeptides were dissolved in ultrapure water (to form a 30 mM solution initially), followed by the stepwise addition of 1 N NaOH solution to adjust the overall aqueous pH to 6.5–8.5. Meanwhile, a short-term ultrasonication treatment was applied after each pH adjustment to facilitate peptide solubilization and speed up peptide self-assembly. […] The mixture was allowed to stand in for another 48 h for complete hydrogelation. Upon the absence of gelation phenomenon during the aforementioned loops, we increased the peptide concentration (60 mM, 90 mM, and 120 mM were selected) and re-started such gelation operation loop to explore their gelation feasibility.

[3] = 120 mM peptide (highest tested) in ultrapure water, pH 6.5-8.5 (1 N NaOH), vial-inverting method, precipitate, sol, suspension = no gel
[4] = peptide concentration 120 mM, vial-inverting method
[5] = 90 mM peptide in ultrapure water, pH 6.5-8.5 (1 N NaOH), vial-inverting method, no gel at lower concentrations
[6] = peptide concentration 90 mM, vial-inverting method
[7] = 30 mM peptide in ultrapure water, pH adjusted to 6.5-8.5 with 1 N NaOH, vial-inverting method, concentration raised 30/60/90/120 mM until gelation
[8] = peptide concentration 30 mM, vial-inverting method

## N[C@@H](Cc1c[nH]c2ccccc12)C(=O)N[C@@H](Cc1c[nH]c2ccccc12)C(=O)N[C@@H](Cc1c[nH]c2ccccc12)C(=O)N[C@@H](Cc1c[nH]c2ccccc12)C(=O)O [WWWW] (H-WWWW-OH)
[1]; line of the table gives 120 mM
  Morphology: sphere
[2]; [3]
  State: suspension
[2]
  Concentration: 120000 µM
[2]; [4]
  GELATION: 0

## C[C@@H](O)[C@H](N)C(=O)N[C@H](C(=O)N[C@H](C(=O)N[C@H](C(=O)O)[C@@H](C)O)[C@@H](C)O)[C@@H](C)O [TTTT] (H-TTTT-OH)
[1]; line of the table gives 120 mM
  Morphology: aggregates
[2]; [3]
  State: suspension
[2]
  Concentration: 120000 µM
[2]; [4]
  GELATION: 0

## CC[C@H](C)[C@H](N)C(=O)N[C@@H](Cc1c[nH]cn1)C(=O)N[C@@H](Cc1ccccc1)C(=O)N[C@H](C(=O)O)C(C)C [IHFV] (H-IHFV-OH)
[1]; line of the table gives 120 mM
  Morphology: sphere
[2]; [3]
  State: sol
[2]
  Concentration: 120000 µM
[2]; [4]
  GELATION: 0

## CSCC[C@H](NC(=O)[C@H](CCSC)NC(=O)[C@H](Cc1ccccc1)NC(=O)[C@@H](N)C(C)C)C(=O)O [VFMM] (H-VFMM-OH)
[1]; line of the table gives 120 mM
  Morphology: fibre
[2]; [3]
  State: gel
[2]
  Concentration: 120000 µM
[2]; [4]
  GELATION: 1

## CC[C@H](C)[C@H](N)C(=O)N[C@H](C(=O)N[C@@H](Cc1ccccc1)C(=O)N[C@@H](Cc1c[nH]c2ccccc12)C(=O)O)C(C)C [IVFW] (H-IVFW-OH)
[1]; line of the table gives 120 mM
  Morphology: sphere
[2]; [3]
  State: gel
[2]
  Concentration: 120000 µM
[2]; [4]
  GELATION: 1

## CC[C@H](C)[C@H](NC(=O)[C@@H](NC(=O)[C@@H](NC(=O)[C@@H]1CCCN1)C(C)C)[C@@H](C)CC)C(=O)O [PVII] (H-PVII-OH)
[1]; line of the table gives 90 mM
  Morphology: fibre
[2]; [5]
  State: gel
[2]
  Concentration: 90000 µM
[2]; [6]
  GELATION: 1

## CC[C@H](C)[C@H](NC(=O)[C@@H](NC(=O)[C@@H](NC(=O)[C@@H](N)CC(C)C)C(C)C)[C@@H](C)CC)C(=O)O [LVII] (H-LVII-OH)
[1]; line of the table gives 30 mM
  Morphology: sheet
[2]; [7]
  State: gel
[2]
  Concentration: 30000 µM
[2]; [8]
  GELATION: 1

## CC(C)[C@H](NC(=O)[C@H](Cc1c[nH]c2ccccc12)NC(=O)[C@@H](N)CCCNC(=N)N)C(=O)N[C@@H](Cc1ccccc1)C(=O)O [RWVF] (H-RWVF-OH)
[1]; line of the table gives 120 mM
  Morphology: aggregates
[1]
  morphology by TEM (in words): aggregates with different sizes
[2]; [3]
  State: sol
[2]
  Concentration: 120000 µM
[2]; [4]
  GELATION: 0

## CC(C)[C@H](N)C(=O)N[C@@H](C)C(=O)N[C@@H](Cc1ccccc1)C(=O)N[C@@H](Cc1ccc(O)cc1)C(=O)O [VAFY] (H-VAFY-OH)
[1]; line of the table gives 120 mM
  Morphology: sphere
[2]; [3]
  State: gel
[2]
  Concentration: 120000 µM
[2]; [4]
  GELATION: 1

## CC(C)C[C@H](NC(=O)[C@H](CC(C)C)NC(=O)[C@@H](N)CC(C)C)C(=O)N[C@@H](Cc1ccccc1)C(=O)O [LLLF] (H-LLLF-OH)
[1]; line of the table gives 30 mM
  Morphology: aggregates
[2]; [7]
  State: gel
[2]
  Concentration: 30000 µM
[2]; [8]
  GELATION: 1

## CC(C)C[C@H](NC(=O)[C@H](CC(C)C)NC(=O)[C@H](CC(C)C)NC(=O)[C@@H](N)CC(C)C)C(=O)O [LLLL] (H-LLLL-OH)
[1]; line of the table gives 30 mM
  Morphology: needle
[2]; [7]
  State: gel
[2]
  Concentration: 30000 µM
[2]; [8]
  GELATION: 1

## CSCC[C@H](NC(=O)[C@H](Cc1c[nH]c2ccccc12)NC(=O)[C@@H](N)Cc1c[nH]c2ccccc12)C(=O)N[C@@H](Cc1ccccc1)C(=O)O [WWMF] (H-WWMF-OH)
[1]; line of the table gives 120 mM
  Morphology: rod
[2]; [3]
  State: gel
[2]
  Concentration: 120000 µM
[2]; [4]
  GELATION: 1

## CC[C@H](C)[C@H](N)C(=O)N[C@@H](CC(C)C)C(=O)N[C@H](C(=O)N[C@H](C(=O)O)C(C)C)C(C)C [ILVV] (H-ILVV-OH)
[1]; line of the table gives 30 mM
  Morphology: aggregates
[2]; [7]
  State: gel
[2]
  Concentration: 30000 µM
[2]; [8]
  GELATION: 1

## CC(C)C[C@H](N)C(=O)N[C@H](C(=O)N[C@@H](Cc1c[nH]c2ccccc12)C(=O)N[C@@H](Cc1ccccc1)C(=O)O)C(C)C [LVWF] (H-LVWF-OH)
[1]; line of the table gives 90 mM
  Morphology: needle
[2]; [5]
  State: gel
[2]
  Concentration: 90000 µM
[2]; [6]
  GELATION: 1

## C[C@@H](O)[C@H](NC(=O)[C@H](Cc1ccccc1)NC(=O)[C@H](Cc1c[nH]c2ccccc12)NC(=O)[C@@H](N)CS)C(=O)O [CWFT] (H-CWFT-OH)
[1]; line of the table gives 120 mM
  Morphology: aggregates
[2]; [3]
  State: suspension
[2]
  Concentration: 120000 µM
[2]; [4]
  GELATION: 0

## O=C(O)[C@H](Cc1ccc(O)cc1)NC(=O)[C@H](Cc1ccc(O)cc1)NC(=O)[C@H](Cc1c[nH]c2ccccc12)NC(=O)[C@@H]1CCCN1 [PWYY] (H-PWYY-OH)
[1]; line of the table gives 60 mM
  Morphology: aggregates
[2]; 60 mM peptide in ultrapure water, pH 6.5-8.5 (1 N NaOH), vial-inverting method, no gel at 30 mM
  State: gel
[2]
  Concentration: 60000 µM
[2]; peptide concentration 60 mM, vial-inverting method
  GELATION: 1

## CC[C@H](C)[C@H](N)C(=O)N[C@@H](Cc1c[nH]c2ccccc12)C(=O)N1CCC[C@H]1C(=O)N[C@@H](Cc1c[nH]c2ccccc12)C(=O)O [IWPW] (H-IWPW-OH)
[1]; line of the table gives 120 mM
  Morphology: aggregates
[2]; [3]
  State: precipitate
[2]
  Concentration: 120000 µM
[2]; [4]
  GELATION: 0

## CC(C)C[C@H](N)C(=O)N[C@@H](CCCNC(=N)N)C(=O)N[C@@H](Cc1ccccc1)C(=O)N[C@@H](Cc1c[nH]cn1)C(=O)O [LRFH] (H-LRFH-OH)
[1]; line of the table gives 120 mM
  Morphology: particle
[1]
  morphology by TEM (in words): aggregates with different sizes
[2]; [3]
  State: sol
[2]
  Concentration: 120000 µM
[2]; [4]
  GELATION: 0

## N[C@@H](Cc1ccc(O)cc1)C(=O)N[C@@H](Cc1ccc(O)cc1)C(=O)N[C@@H](Cc1ccc(O)cc1)C(=O)N[C@@H](Cc1ccc(O)cc1)C(=O)O [YYYY] (H-YYYY-OH)
[1]; line of the table gives 120 mM
  Morphology: aggregates
[2]; [3]
  State: sol
[2]
  Concentration: 120000 µM
[2]; [4]
  GELATION: 0

## CC(C)[C@H](NC(=O)[C@@H](N)Cc1c[nH]c2ccccc12)C(=O)N[C@@H](Cc1ccccc1)C(=O)N[C@@H](Cc1ccc(O)cc1)C(=O)O [WVFY] (H-WVFY-OH)
[1]; line of the table gives 30 mM
  Morphology: sheet
[1]
  morphology by TEM (in words): interlaced nanosheets
[2]; [7]
  State: gel
[2]
  Concentration: 30000 µM
[2]; [8]
  GELATION: 1
[2]; vial-inverting method, representative hydrogels pH between 7.0 to 7.5
  hydrogel formation (in words): hydrogels

## N[C@@H](Cc1c[nH]c2ccccc12)C(=O)N[C@@H](Cc1ccc(O)cc1)C(=O)N[C@@H](Cc1ccccc1)C(=O)N[C@@H](Cc1ccccc1)C(=O)O [WYFF] (H-WYFF-OH)
[1]; line of the table gives 30 mM
  Morphology: fibre
[2]; [7]
  State: gel
[2]
  Concentration: 30000 µM
[2]; [8]
  GELATION: 1

## CC(C)C[C@H](NC(=O)[C@@H](NC(=O)[C@H](Cc1ccccc1)NC(=O)[C@@H](N)CCCCN)C(C)C)C(=O)O [KFVL] (H-KFVL-OH)
[2]; [4]
  GELATION: 0

## C[C@@H](O)[C@H](N)C(=O)N[C@@H](CCC(N)=O)C(=O)N[C@@H](Cc1ccccc1)C(=O)N[C@@H](CO)C(=O)O [TQFS] (H-TQFS-OH)
[2]; [4]
  GELATION: 0

## CC(C)[C@H](N)C(=O)N[C@@H](Cc1ccccc1)C(=O)NCC(=O)N[C@H](C(=O)O)C(C)C [VFGV] (H-VFGV-OH)
[2]; [3]
  State: sol
[2]
  Concentration: 120000 µM
[2]; [4]
  GELATION: 0

## CC(C)C[C@H](NC(=O)[C@@H](NC(=O)[C@H](Cc1ccccc1)NC(=O)[C@@H](N)CCCCN)C(C)C)C(=O)O [LYS-PHE-VAL-LEU] (H-KFVL-OH)
[2]; experimental gelation result of the synthesized peptide
  EXP: 0
